US20150025002A1, “PEPTIDES AND PEPTIDE DERIVATIVES BASED ON XENIN” (UNIVERSITY OF ULSTER, priority 2012, published 2015)
Square brackets hold non-standard residues; d marks the D form. Ends that are not written are not given here.

What was measured:
BRIN-BD11 cells = test: In vitro insulin secretion in BRIN-BD11 cells (radioimmunoassay); assay type: cell-based, rat; settings: 5.6 mM glucose; for insulin secretion compared to glucose alone, FIG. 1b experiment: P<0.05 to P<0.001
Method: BRIN-BD11 cells (ECACC accession number 100330033) were cultured in RPMI 1640 tissue culture medium containing 10% (v/v) foetal calf serum, 1% (v/v) antibiotics (100 U/ml of penicillin and 0.1 mg/ml of streptomycin). BRIN-BD11 cells were originally derived by means of electrofusion of a New England Deaconess Hospital (NEDH) rat pancreatic beta-cell line with an RINm5F cell line in order to produce an immortal, glucose sensitive, insulin secreting cell line (McClenaghan etal., Diabetes. 1996 August; 45(8):1132-40). All cells were maintained in sterile tissue culture flasks (Corning Glass Works, Corning, N.Y., USA) at 37° C. in an atmosphere of 5% CO2 and 95% air, using an LEEC incubator (Laboratory Technical Engineering, Nottingham, UK).
BRIN-BD11 cells were seeded into 24-well plates at a density of 1×10^5 cells and allowed to attach to the wells overnight in an incubator. Before acute studies of insulin were carried out, the cells underwent a 40 min preincubation period at 37° C. with 1.0 ml of Krebs Ringer bicarbonate buffer (115 mM NaCl, 4.7 mM KCl, 1.28 mM CaCl2.2H2O, 1.2 mM KH2PO4, 1.2 mM MgSO4.7H2O, 10 mM NaHCO3, 5 g/l bovine serum albumin (BSA), pH 7.4) supplemented with 1.1 mM glucose. […] The incubations were performed for 20 min at 37° C., after which the buffer solution was removed and 2×200 μl aliquots stored at −20° C. until measurement of insulin levels by radioimmunoassay (RIA).

[1] = Incubation in the presence of murine plasma (MALDI-ToF MS, ESI MS); settings: 37° C., 50 mM TEA-HCl pH 7.8, up to 24 hours
Method: MALDI-ToF Mass Spectrometry: Following solid phase extraction, samples for each degradation time-point were subsequently mixed with α-cyano-4-hydroxycinnamic acid and applied to a Voyager-DE BioSpectrometry Workstation and mass-to-charge (m/z) ratio verses peak intensity recorded.
ESI Mass Spectrometry: Samples for each degradation time-point were applied to the ESI Ion-trap MS/MS utilizing a mass-to-charge range (m/z) of 0-2000. Resulting mass spectra were analyzed with the turbo sequest algorithm and degradation fragments sequenced against a fasta database containing the native xenin sequence.

high fat fed mice = test: Acute glucose homeostasis and insulin secretion in high fat fed mice; assay type: in vivo; settings: 25 nmol/kg i.p. with glucose 18 mmol/kg
Method: (§1) NIH Swiss male mice (6 weeks old) were housed in an air conditioned room 22±2° C. with a 12 h light: 12 h dark cycle. Animals were maintained on a high fat diet 16 weeks prior to commencement and throughout the study. Drinking water and high fat diet was freely available. All animal studies were performed in accordance with the UK Animals (Scientific Procedures) Act 1986 under project licences held by the inventor.
Freely fed animals were divided into weight-matched groups (n=8) and administered, by intraperitoneal injection, glucose alone (18 mmol/kg body weight) or glucose in combination with each peptide (25 nmol/kg body weight). Blood samples were collected immediately prior to (t=0) and 15, 30 and 60 min post-injection. Whole blood was used to measure glucose values using an Acensia CONTOUR Microfill Blood Glucose Meter and Acensia MICROFILL test strips (Bayer Healthcare, UK). Blood samples for measurement of insulin was collected into fluorine/heparin microcentrifuge tubes (Sarstedt, Numbercht, Germany) at times indicated above and immediately centrifuged using a Beckman microcentrifuge (Beckman Instruments, UK) for 5 min at 13,000 g. Plasma was then aliquoted and stored at −20° C. prior to insulin determination by RIA.

high-fat fed mice = test: Persistent glucose-lowering in high-fat fed mice, peptide given 4 hours before glucose load; assay type: in vivo; settings: 25 nmol/kg i.p. 4 hours before glucose load
Method: as §1
Freely fed animals were divided into weight-matched groups (n=8) and administered, by intraperitoneal injection, saline vehicle (0.9% NaCl) or saline in combination with each peptide (25 nmol/kg body weight). Food was then immediately withdrawn and 4 hours later all mice received an intraperitoneal injection of glucose alone (18 mmol/kg body weight). Blood samples were collected immediately prior to (t=0) and 15, 30 and 60 min post glucose injection. Whole blood was used to measure glucose values using an Acensia CONTOUR Microfill Blood Glucose Meter and Acensia MICROFILL test strips (Bayer Healthcare, UK).

[2] = target: Dipeptidyl peptidase-4 (DPP-4) (Homo sapiens, UniProt P27487); settings: pH 7.8
Chain of Dipeptidyl peptidase-4 (DPP-4) (P27487 whole entry, species assumed): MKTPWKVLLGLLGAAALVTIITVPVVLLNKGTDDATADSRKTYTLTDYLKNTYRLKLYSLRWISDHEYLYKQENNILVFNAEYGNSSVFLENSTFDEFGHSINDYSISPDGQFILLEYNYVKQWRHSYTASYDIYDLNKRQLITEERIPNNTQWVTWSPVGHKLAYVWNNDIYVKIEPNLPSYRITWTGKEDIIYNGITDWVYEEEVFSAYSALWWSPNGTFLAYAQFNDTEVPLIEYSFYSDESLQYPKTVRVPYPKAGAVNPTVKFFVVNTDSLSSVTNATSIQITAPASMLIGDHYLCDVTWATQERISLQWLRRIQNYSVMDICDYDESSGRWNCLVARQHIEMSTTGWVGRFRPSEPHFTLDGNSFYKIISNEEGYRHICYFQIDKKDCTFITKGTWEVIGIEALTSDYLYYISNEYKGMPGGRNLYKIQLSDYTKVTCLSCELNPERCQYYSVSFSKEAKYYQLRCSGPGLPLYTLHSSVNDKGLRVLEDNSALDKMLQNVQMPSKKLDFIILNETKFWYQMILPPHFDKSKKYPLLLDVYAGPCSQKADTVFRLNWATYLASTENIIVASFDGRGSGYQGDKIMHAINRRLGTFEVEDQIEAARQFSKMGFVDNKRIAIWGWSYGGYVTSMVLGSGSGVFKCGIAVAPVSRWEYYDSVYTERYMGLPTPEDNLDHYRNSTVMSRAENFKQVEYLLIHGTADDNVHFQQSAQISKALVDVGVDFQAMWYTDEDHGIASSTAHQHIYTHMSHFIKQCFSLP
Method: Dipeptidyl peptidase-4 (DPP-4) was used to determine the degradation properties and identify any degradation products. Each peptide (30 μg) was incubated at 37° C. DPP-4 with 455 μl 50 mM triethanolamine-HCl (TEA) pH 7.8 buffer, and the reaction was stopped with 5 μl 10% (v/v) TFA. Time 0, 15, 30, 60, 120, 240 and 480 minutes degradation profiles were measured and HPLC was carried out to identify the degradation pattern and degradation products.

## (D-Ala^2)GIP: YAEGTFISDYSIAMDKIHQQDFVNWLLAQKGKKNDWKHNITQ, alanine at position 2 is a D-amino acid (Y[dA]EGTFISDYSIAMDKIHQQDFVNWLLAQKGKKNDWKHNITQ)
BRIN-BD11 cells
  insulin secretion compared to glucose alone, FIG. 1b experiment: significantly stimulated insulin secretion in a concentration-dependent manner

## MLTQFETQSAQVQGLSFHPQQPWIL [xenin-Gln]
[1]
  degradation in murine plasma: stable in the presence of murine plasma

## MLTKFETKSARVKGLSFHPKRPWIL-OH [native xenin]
High fat fed mice; 0-60 min
  plasma glucose AUC vs glucose alone: failed to reach overall significance
High fat fed mice; 0-60 min, FIG. 2a
  plasma glucose excursion vs glucose alone: not significantly different to animals receiving glucose alone
High fat fed mice; FIG. 2b/2f
  plasma insulin response vs glucose alone: not significantly different to animals receiving glucose alone
high-fat fed mice
  effect on plasma glucose when administered 4 hours previously: did not elicit any significant effects on plasma glucose
BRIN-BD11 cells; 20 min, 10^-12 to 10^-6 M, FIG. 1a/1e
  insulin secretion, peptide alone: stimulated insulin secretion in a concentration-dependent manner
BRIN-BD11 cells
  insulin secretion compared to glucose alone, FIG. 1b experiment: significantly stimulated insulin secretion in a concentration-dependent manner
BRIN-BD11 cells; peptide alone, FIG. 1a/1e
  insulin production compared to glucose alone, concentrations with significant effect: significantly enhanced insulin production at concentrations of 10^−8 and 10^−6 M
[2]
  degradation by DPP-IV: completely resistant to degradation by DPP-IV
